Experiment [1] has as its target T1, HCV polymerase 1A (Δ21 NS5B, H77) (Hepatitis C virus genotype 1a, UniProt P27958).
T1 construct: 20 to 50 nM Δ21 NS5B
As to the kind of experiment: biochemical. To be noted: IC50 1a. In short, it runs like this:
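Radiometric assay with Δ21 NS5B (H77): 20 μM CTP, 20 μM ATP, 1 μM ^3H-UTP, 5 nM template RNA, 2–4 h at room temperature. RNA precipitated with spermine, filter-captured and counted. IC50 from non-linear fit of retained cpm vs inhibitor concentration (tight-binding equation).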

For experiment [2], the target named is T2, HCV polymerase 1B (Δ21 NS5B, BK) (Hepatitis C virus genotype 1b, UniProt P26663).
T2 construct: 20 to 50 nM Δ21 NS5B
Briefly: biochemical. In short, it runs like this: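 Δ21 NS5B (genotype 1b, BK […]) preincubated 15 min RT with inhibitor, 2 mM MnCl2, pH 7.4, 60–125 μM GTP; started with 20 μM CTP/ATP, 1 μM 3H-UTP, 5 nM template RNA, run 2–4 h RT. Spermine-precipitated RNA filter-captured, scintillation counted; IC50 from tight-binding (Morrison) fit.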

Experiment [3] concerns genotype 1a-H77 subgenomic replicon cell line. Briefly: microbe, parasite or virus in culture. Format: cell-based, HCV. The note with it: Hepatitis C virus, read-out: EC50 1a.
In experiment [4] the test system is genotype 1b-Con1 subgenomic replicon cell line. Briefly: microbe, parasite or virus in culture. To be noted: Hepatitis C virus, read-out: EC50 1b. Format: cell-based, HCV.

Where only a bound is given, the exact number is not on record here.

T1 sequence (P27958 2421-2990, stated change not applied): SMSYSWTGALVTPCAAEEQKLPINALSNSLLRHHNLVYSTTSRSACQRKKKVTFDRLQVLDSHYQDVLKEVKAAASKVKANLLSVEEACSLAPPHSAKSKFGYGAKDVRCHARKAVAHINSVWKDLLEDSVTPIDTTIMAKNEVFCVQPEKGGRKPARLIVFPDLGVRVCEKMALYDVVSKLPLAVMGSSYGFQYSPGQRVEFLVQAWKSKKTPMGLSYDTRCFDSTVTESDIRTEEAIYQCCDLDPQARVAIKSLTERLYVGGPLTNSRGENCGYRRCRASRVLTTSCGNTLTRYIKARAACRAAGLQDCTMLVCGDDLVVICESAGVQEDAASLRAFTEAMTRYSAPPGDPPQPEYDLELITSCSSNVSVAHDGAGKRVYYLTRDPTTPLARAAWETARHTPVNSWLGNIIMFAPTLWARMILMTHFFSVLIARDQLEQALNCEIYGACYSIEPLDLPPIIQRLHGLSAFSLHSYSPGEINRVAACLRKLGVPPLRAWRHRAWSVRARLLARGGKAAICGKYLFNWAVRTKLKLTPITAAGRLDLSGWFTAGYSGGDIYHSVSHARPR
T2 sequence (P26663 2420-2989, stated change not applied): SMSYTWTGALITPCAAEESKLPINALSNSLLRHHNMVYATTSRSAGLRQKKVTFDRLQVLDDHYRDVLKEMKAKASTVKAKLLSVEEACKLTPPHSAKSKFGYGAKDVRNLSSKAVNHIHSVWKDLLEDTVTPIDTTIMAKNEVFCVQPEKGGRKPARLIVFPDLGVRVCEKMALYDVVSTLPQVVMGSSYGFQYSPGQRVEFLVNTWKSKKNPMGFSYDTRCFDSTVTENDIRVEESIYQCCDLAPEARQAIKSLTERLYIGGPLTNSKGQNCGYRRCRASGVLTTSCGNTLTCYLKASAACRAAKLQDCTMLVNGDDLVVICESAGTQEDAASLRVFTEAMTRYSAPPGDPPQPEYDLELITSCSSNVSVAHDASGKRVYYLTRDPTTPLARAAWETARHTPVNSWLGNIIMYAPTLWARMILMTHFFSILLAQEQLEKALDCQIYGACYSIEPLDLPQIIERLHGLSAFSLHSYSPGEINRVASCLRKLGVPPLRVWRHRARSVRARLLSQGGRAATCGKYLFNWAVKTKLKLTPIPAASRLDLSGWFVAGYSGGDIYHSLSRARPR

For the compound `COc1c(C#Cc2cc(F)c(NS(C)(=O)=O)cc2C(F)(F)F)cc(N2CCC(=O)NC2=O)cc1C(C)(C)C` [IA-L2-1.22, N-(4-((3-tert-butyl-5-(2,4-dioxotetrahydropyrimidin-1(2H)-yl)-2-methoxyphenyl)ethynyl)-2-fluoro-5-(trifluoromethyl)phenyl)methanesulfonamide], the IC50 in experiment [1] and in experiment [2] was 10 to 100 nM in each case. The EC50 (commonly the concentration giving half of the maximal effect) in experiment [3] fell in the range of 100 to 1000 nM; in experiment [4] it was 10 to 100 nM.
Regarding `CC(C)(C)c1cc(C(=O)Nc2ccc(NS(C)(=O)=O)cc2)cc(N2CCC(=O)NC2=O)c1` [IA-L3-1.105, 3-tert-butyl-5-(2,4-dioxotetrahydropyrimidin-1(2H)-yl)-N-(4-(methylsulfonamido)phenyl)benzamide], the values for the IC50 in experiment [1] and in experiment [2] were 100 to 1000 nM and 10 to 100 nM, respectively. Further, the EC50 in experiment [3] and in experiment [4] was more than 1000 nM throughout.
For the compound `COc1c(C#Cc2ccc(NS(C)(=O)=O)c(F)c2)cc(N2CCC(=O)NC2=O)cc1C(C)(C)C` [IA-L2-1.13, N-(4-((3-tert-butyl-5-(2,4-dioxotetrahydropyrimidin-1(2H)-yl)-2-methoxyphenyl)ethynyl)-2-fluorophenyl)methanesulfonamide], the IC50 in experiment [1] and in experiment [2] was less than 10 nM in each case. Further, the EC50 was in the range of 100 to 1000 nM in experiment [3] and 10 to 100 nM in experiment [4].
`COc1c(-c2ccc3c(c2)CC=C3CNS(C)(=O)=O)cc(-n2ccc(=O)[nH]c2=O)cc1-c1ccco1` [IB-L0-2.65, N-((6-(5-(2,4-dioxo-3,4-dihydropyrimidin-1(2H)-yl)-3-(furan-2-yl)-2-methoxyphenyl)-1H-inden-3-yl)methyl)methanesulfonamide]: the IC50 (as a rule, the concentration at which inhibition is half-maximal) in experiment [1] is 10 to 100 nM; in experiment [2], less than 10 nM. For the same compound, the results for the EC50 in experiment [3] and in experiment [4] were 100 to 1000 nM and 10 to 100 nM, respectively.
Consider `COc1c(-c2ccc(/C(C)=N/NS(C)(=O)=O)cc2)cc(-n2ccc(=O)[nH]c2=O)cc1C(C)(C)C` [IB-L0-1.5, (E)-N′-(1-(3′-tert-butyl-5′-(2,4-dioxo-3,4-dihydropyrimidin-1(2H)-yl)-2′-methoxybiphenyl-4-yl)ethylidene)methanesulfonohydrazide], for which the IC50 in experiment [1] and in experiment [2] was 10 to 100 nM throughout. Further, the EC50 in experiment [3] and in experiment [4] was 10 to 100 nM throughout.
Consider `CC(C)(C)c1cc(N2CCC(=O)NC2=O)cc(C(=O)Nc2ccc(NS(=O)(=O)Cc3ccccc3)cc2)c1O` [IA-L3-1.12, 3-tert-butyl-5-(2,4-dioxotetrahydropyrimidin-1(2H)-yl)-2-hydroxy-N-(4-(phenylmethyl-sulfonamido)phenyl)benzamide], for which the values for the IC50 in experiment [1] and in experiment [2] were 100 to 1000 nM and 10 to 100 nM, respectively. The EC50 in experiment [3] and in experiment [4] was more than 1000 nM throughout.
As to `CCNC(=O)CN1C(=O)CCN(c2cc(C(=O)Nc3ccc(N(CC(=O)NCC)S(C)(=O)=O)cc3)c(OC)c(C(C)(C)C)c2)C1=O` [IA-L3-1.115, 3-tert-butyl-5-(3-(2-(ethylamino)-2-oxoethyl)-2,4-dioxotetrahydropyrimidin-1(2H)-yl)-N-(4-(N-(2-(ethylamino)-2-oxoethyl)methylsulfonamido)phenyl)-2-methoxybenzamide], the IC50 in experiment [1] and in experiment [2] was more than 1000 nM throughout. Further, the EC50 in experiment [3] and in experiment [4] was more than 1000 nM in each case.
Turning to `CC(C)(C)OC(=O)N(Cc1csc(NC(=O)c2cc(N3CCC(=O)NC3=O)cc(C(C)(C)C)c2O)c1)S(C)(=O)=O` [IA-L3-1.98, tert-butyl (5-(3-tert-butyl-5-(2,4-dioxotetrahydropyrimidin-1(2H)-yl)-2-hydroxybenzamido)thiophen-3-yl)methyl(methylsulfonyl)carbamate], the IC50 in experiment [1] is more than 1000 nM; in experiment [2], 100 to 1000 nM. For the same compound, the EC50 in experiment [3] was more than 1000 nM; in experiment [4], 100 to 1000 nM.
As to `CC(C)(C)c1cc(-c2ccc3c(c2)CC/C3=N\NS(C)(=O)=O)cc(-n2ccc(=O)[nH]c2=O)c1` [IB-L0-2.7, (E)-N′-(5-(3-tert-butyl-5-(2,4-dioxo-3,4-dihydropyrimidin-1(2H)-yl)phenyl)-2,3-dihydro-1H-inden-1-ylidene)methanesulfonohydrazide], the IC50 in experiment [1] and in experiment [2] was 10 to 100 nM each time. The EC50 lay in the range of 100 to 1000 nM in experiment [3] and 10 to 100 nM in experiment [4].
Regarding `COc1c(C(=O)Nc2cccc(CNS(C)(=O)=O)c2)cc(N2CCC(=O)NC2=O)cc1C(C)(C)C` [IA-L3-1.120, 3-tert-butyl-5-(2,4-dioxotetrahydropyrimidin-1(2H)-yl)-2-methoxy-N-(3-(methylsulfonamidomethyl)phenyl)benzamide], the IC50 in experiment [1] and in experiment [2] was 100 to 1000 nM throughout. The EC50 in experiment [3] and in experiment [4] was more than 1000 nM in each case.
`COc1c(C(=O)Nc2ccc(N)cc2)cc(N2CCC(=O)NC2=O)cc1C(C)(C)C` [IA-L3-1.107, N-(4-aminophenyl)-3-tert-butyl-5-(2,4-dioxotetrahydropyrimidin-1(2H)-yl)-2-methoxy benzamide]: the IC50 in experiment [1] and in experiment [2] was more than 1000 nM in each case. For the same compound, the EC50 in experiment [3] and in experiment [4] was more than 1000 nM in each case.
In the case of `CC(C)(C)c1cc(N2CCC(=O)NC2=O)cc(C(=O)Nc2cc(CNS(C)(=O)=O)cs2)c1O` [IA-L3-1.91, 3-tert-butyl-5-(2,4-dioxotetrahydropyrimidin-1(2H)-yl)-2-hydroxy-N-(4-(methylsulfonamidomethyl)thiophen-2-yl)benzamide], the IC50 in experiment [1] and in experiment [2] was 10 to 100 nM each time. In addition, the EC50 in experiment [3] and in experiment [4] was 100 to 1000 nM each time.
Turning to `COc1c(C(=O)Nc2ccc(OCC#N)cc2)cc(N2CCC(=O)NC2=O)cc1C(C)(C)C` [IA-L3-1.38, 3-tert-butyl-N-(4-(cyanomethoxy)phenyl)-5-(2,4-dioxotetrahydropyrimidin-1(2H)-yl)-2-methoxybenzamide], the IC50 was more than 1000 nM in experiment [1] and 100 to 1000 nM in experiment [2]. In addition, the EC50 in experiment [3] and in experiment [4] was more than 1000 nM each time.
As for `COc1ccc(-c2cc(-n3ccc(=O)[nH]c3=O)cc(C(C)(C)C)c2OC)cc1/C=N/NS(C)(=O)=O` [IB-L0-1.6, (E)-N′-((3′-tert-butyl-5′-(2,4-dioxo-3,4-dihydropyrimidin-1(2H)-yl)-2′,4-dimethoxybiphenyl-3-yl)methylene)methanesulfonohydrazide], the IC50 in experiment [1] and in experiment [2] was 100 to 1000 nM in each case. Also, the EC50 was more than 1000 nM in experiment [3] and 100 to 1000 nM in experiment [4].
Consider `Cc1cc(=O)[nH]c(=O)n1-c1cc(C(=O)Nc2ccc(NS(C)(=O)=O)cc2)c(O)c(C(C)(C)C)c1` [IB-L3-1.4, 3-tert-butyl-2-hydroxy-5-(6-methyl-2,4-dioxo-3,4-dihydropyrimidin-1(2H)-yl)-N-(4-(methylsulfonamido)phenyl)benzamide], for which the IC50 was in the range of 100 to 1000 nM in experiment [1] and 10 to 100 nM in experiment [2]. Further, the EC50 in experiment [3] and in experiment [4] was more than 1000 nM each time.
As for `COc1c(-c2ccc3c(CN(C)S(C)(=O)=O)csc3c2)cc(-n2ccc(=O)[nH]c2=O)cc1C(C)(C)C` [IB-L0-2.21, N-((6-(3-tert-butyl-5-(2,4-dioxo-3,4-dihydropyrimidin-1(2H)-yl)-2-methoxyphenyl)benzo[b]thiophen-3-yl)methyl)-N-methylmethanesulfonamide], the IC50 in experiment [1] and in experiment [2] was 10 to 100 nM each time. The EC50 was in the range of 100 to 1000 nM in experiment [3] and 10 to 100 nM in experiment [4].
